The supplement of paper PMC10307832

Columns and labels:
Test in all cases: relative viability (nuclei count vs DMSO), 5 days (fraction); higher = more cells survive
Metformin + Palbociclib = compound: CN(C)C(=N)NC(=N)N [Metformin] + CC(=O)c1c(C)c2cnc(Nc3ccc(N4CCNCC4)cn3)nc2n(C2CCCC2)c1=O [Palbociclib] (partner 0.5 µM)
In short: (§1)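 Relative viability divides the nuclei count in treated wells by that in vehicle wells. Lung cancer cell lines were seeded in 1536-well plates, dosed by pin tool the next day, and fixed and stained after 5 days in one step with final 0.05% Triton X-100, 1% formaldehyde and 1 ug/ml Hoechst. Dosing was a single drug or a fixed anchor-drug dose plus five library-drug doses (not always all listed) in √10 steps, and values are medians of duplicate plates imaged at 4×.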

Apatinib + Crizotinib = compound: N#CC1(c2ccc(NC(=O)c3cccnc3NCc3ccncc3)cc2)CCCC1 [Apatinib] + C[C@@H](Oc1cc(-c2cnn(C3CCNCC3)c2)cnc1N)c1c(Cl)ccc(F)c1Cl [Crizotinib] (partner 1 µM)
In short: as §1

Apatinib + Decitabine = compound: N#CC1(c2ccc(NC(=O)c3cccnc3NCc3ccncc3)cc2)CCCC1 [Apatinib] + Nc1ncn([C@H]2C[C@H](O)[C@@H](CO)O2)c(=O)n1 [Decitabine] (partner 2 µM)
In short: as §1

Metformin + AZD7762 = compound: CN(C)C(=N)NC(=N)N [Metformin] + NC(=O)Nc1cc(-c2cccc(F)c2)sc1C(=O)N[C@H]1CCCNC1 [AZD7762] (partner 0.2 µM)
In short: as §1

Cell Line | relative viability (Metformin + Palbociclib; first compound 10 µM) | relative viability (Metformin + Palbociclib; first compound 31.62 µM) | relative viability (Metformin + Palbociclib; first compound 100 µM) | relative viability (Metformin + Palbociclib; first compound 316.23 µM) | relative viability (Metformin + Palbociclib; first compound 1000 µM) | relative viability (Apatinib + Crizotinib; first compound 0.08 µM) | relative viability (Apatinib + Crizotinib; first compound 0.253 µM) | relative viability (Apatinib + Crizotinib; first compound 0.8 µM) | relative viability (Apatinib + Crizotinib; first compound 2.53 µM) | relative viability (Apatinib + Crizotinib; first compound 8 µM) | relative viability (Apatinib + Decitabine; first compound 0.08 µM) | relative viability (Apatinib + Decitabine; first compound 0.253 µM) | relative viability (Apatinib + Decitabine; first compound 0.8 µM) | relative viability (Apatinib + Decitabine; first compound 2.53 µM) | relative viability (Apatinib + Decitabine; first compound 8 µM) | relative viability (Metformin + AZD7762; first compound 10 µM) | relative viability (Metformin + AZD7762; first compound 31.62 µM) | relative viability (Metformin + AZD7762; first compound 100 µM) | relative viability (Metformin + AZD7762; first compound 316.23 µM) | relative viability (Metformin + AZD7762; first compound 1000 µM)
LXF-289 | 0.516 | 0.557 | 0.568 | 0.535 | 0.564 | 0.797 | 0.817 | 0.778 | 0.749 | 0.742 | 0.4 | 0.386 | 0.391 | 0.565 | 0.594 | 1.05 | 1.02 | 1.01 | 1.05 | 1.07
LCLC-103H | 0.465 | 0.561 | 0.532 | 0.437 | 0.495 | 1.02 | 1.05 | 1.01 | 0.97 | 1.07 | 0.792 | 0.739 | 0.687 | 0.726 | 0.744 | 0.714 | 0.852 | 0.748 | 0.663 | 0.883
NCI-H2405 | – | 0.498 | 0.485 | 0.487 | 0.344 | 0.936 | 0.863 | 0.883 | 0.762 | 0.811 | 0.83 | 0.854 | 0.711 | 0.712 | 0.776 | – | 0.866 | 0.831 | 0.722 | 0.515
